{
  "source": "patent US7244738B2",
  "about": "“Arylamine-substituted quinazolinone compounds useful as alpha 1A/B adrenergic receptor antagonists” (Roche Palo Alto LLC, priority 2003, dated 2007)",
  "key": {"Alpha1A adrenoceptor": {"target": "T1, Alpha1A adrenoceptor (Homo sapiens, UniProt P35348)", "T1 construct": "expressed in transfected cells; host or cells: CHO-K1", "T1 sequence (P35348 1-466)": "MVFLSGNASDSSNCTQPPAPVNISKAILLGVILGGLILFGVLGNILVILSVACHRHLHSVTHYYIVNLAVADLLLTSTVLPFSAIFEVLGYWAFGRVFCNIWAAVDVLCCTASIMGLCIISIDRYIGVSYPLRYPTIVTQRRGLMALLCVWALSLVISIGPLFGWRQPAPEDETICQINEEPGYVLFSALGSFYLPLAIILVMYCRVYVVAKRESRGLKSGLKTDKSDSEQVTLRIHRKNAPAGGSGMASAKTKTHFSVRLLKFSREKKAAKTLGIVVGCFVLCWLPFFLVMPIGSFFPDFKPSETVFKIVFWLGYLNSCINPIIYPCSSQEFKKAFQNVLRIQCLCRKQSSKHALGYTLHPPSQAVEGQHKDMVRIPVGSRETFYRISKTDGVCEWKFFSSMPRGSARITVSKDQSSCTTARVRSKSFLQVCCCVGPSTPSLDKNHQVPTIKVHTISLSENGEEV", "test": "[3H]prazosin binding (alpha1-adrenoceptor) assay, membranes of transfected CHO-K1 cells", "conditions": "transfected CHO-K1 cell membranes, read-out: pKi alpha 1A (converted)", "description": "(§1) Example [^3H]prazosin Binding (Alpha1-Adrenoceptor) Assay\n(§2) Alpha1A, alpha1B, and alpha1D adrenoceptor transfected CHO-K1 cells, prepared using the methods described by Chang et al., FEBS Lett. 1998, 422:279–283, were grown to confluence in T-162 tissue culture flasks in Ham's F-12 culture medium supplemented with 10% fetal bovine serum, geneticin (150 μg/mL) and streptomycin/penicillin (30 μg/mL/30 μg/mL) at 37° C. in 7% CO2. Cells were harvested by incubating with phosphate-buffered saline (PBS) containing 30 μM EDTA for 5–10 min at 37° C. Cells were pelleted by centrifuging at 500×g for 5 min, and the pelleted cells were homogenized (Polytron homogenizer) in 10 vols (w/v) of 50 mM Tris, 1 mM EDTA, (homogenisation buffer, pH 7.4 at 4° C.). The homogenate was centrifuged at 45,000×g for 20 min. The pellet was resuspended in the homogenizing buffer and rehomogenized. The resulting homogenate was centrifuged at 45,000×g for 20 min. The pellet was resuspended in 50 mM Tris buffer (pH 7.4 at 4° C.), aliquoted, frozen, and stored at −80° C. for further use.\n(§3) The membranes were thawed at room temperature and diluted in assay buffer (50 mM Tris buffer at […]) at 37° C. and homogenized using the Polytron tissue disrupter. The membranes were incubated with the radioligand ([^3H]prazosin, NEN, 0.1–0.5 nM) and test compound at 37° C. for 30 min. The membranes were then filtered over polyethyleneimine-treated GF/B unifilter plates using a Packard Filtermate Harvester and washed with ice-cold 50 mM Tris-HCl, 1 mM EDTA buffer (3×3 sec. washes). Scintillation cocktail was added to the filter plates and bound radioligand determined by liquid scintillation spectrophotometry.\n(§4) For each experiment, total binding (in the absence of any test or reference compounds) and non-specific binding (10 μM phentolamine) were determined. For each sample tested, the concentration producing 50% inhibition of binding (IC50) and Hill Slope (nH) was determined using iterative non-linear curve fitting techniques with Kaleidagraph (Synergy Software) or other appropriate software. If the radioligand KD was known, the inhibition dissociation constant (KI) of each ligand was determined according to the method of Cheng and Prusoff (Cheng, Y-C. and Prusoff, W. H., Biochem. Pharmacol., 1973, 22, 3099–3108)."}, "alpha1B adrenoceptor": {"target": "T2, alpha1B adrenoceptor (Homo sapiens, UniProt P35368)", "T2 construct": "expressed in transfected cells; host or cells: CHO-K1", "T2 sequence (P35368 1-520)": "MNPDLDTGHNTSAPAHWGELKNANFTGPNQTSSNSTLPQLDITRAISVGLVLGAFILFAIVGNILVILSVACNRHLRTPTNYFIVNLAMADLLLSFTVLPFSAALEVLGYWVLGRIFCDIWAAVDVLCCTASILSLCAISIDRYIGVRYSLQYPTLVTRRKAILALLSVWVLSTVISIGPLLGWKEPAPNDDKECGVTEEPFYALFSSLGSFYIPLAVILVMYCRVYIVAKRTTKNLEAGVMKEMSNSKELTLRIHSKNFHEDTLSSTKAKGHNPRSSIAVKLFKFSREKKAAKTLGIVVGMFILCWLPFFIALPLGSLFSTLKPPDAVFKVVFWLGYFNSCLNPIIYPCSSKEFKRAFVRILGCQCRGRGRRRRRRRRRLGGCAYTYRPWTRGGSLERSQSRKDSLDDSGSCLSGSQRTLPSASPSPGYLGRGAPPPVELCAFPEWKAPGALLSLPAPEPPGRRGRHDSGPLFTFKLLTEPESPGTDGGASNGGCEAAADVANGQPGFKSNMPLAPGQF", "test": "[3H]prazosin binding (alpha1-adrenoceptor) assay, membranes of transfected CHO-K1 cells", "conditions": "transfected CHO-K1 cell membranes, read-out: pKi alpha 1B (converted)", "description": "as §1, §2, §3, §4"}, "alpha1D adrenoceptor": {"target": "T3, alpha1D adrenoceptor (Homo sapiens, UniProt P25100)", "T3 construct": "expressed in transfected cells; host or cells: CHO-K1", "T3 sequence (P25100 1-572)": "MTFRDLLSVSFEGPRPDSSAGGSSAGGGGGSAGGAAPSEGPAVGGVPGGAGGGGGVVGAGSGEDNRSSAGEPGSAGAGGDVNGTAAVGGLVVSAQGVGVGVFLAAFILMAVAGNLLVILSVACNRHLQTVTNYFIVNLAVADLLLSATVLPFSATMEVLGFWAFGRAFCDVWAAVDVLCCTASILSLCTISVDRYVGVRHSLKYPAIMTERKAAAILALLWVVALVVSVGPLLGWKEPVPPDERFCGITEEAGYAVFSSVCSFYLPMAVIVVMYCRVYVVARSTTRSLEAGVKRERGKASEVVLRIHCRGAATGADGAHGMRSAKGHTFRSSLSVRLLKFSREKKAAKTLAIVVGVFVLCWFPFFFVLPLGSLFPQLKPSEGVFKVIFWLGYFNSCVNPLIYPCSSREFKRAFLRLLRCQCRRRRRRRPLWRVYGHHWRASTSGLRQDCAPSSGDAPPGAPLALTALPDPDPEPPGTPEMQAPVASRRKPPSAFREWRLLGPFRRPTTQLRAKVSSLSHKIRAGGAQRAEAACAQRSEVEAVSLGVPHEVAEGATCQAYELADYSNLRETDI", "test": "[3H]prazosin binding (alpha1-adrenoceptor) assay, membranes of transfected CHO-K1 cells", "conditions": "transfected CHO-K1 cell membranes, read-out: pKi alpha 1D (converted)", "description": "as §1, §2, §3, §4"}, "anesthetized dog": {"tested_on": "anesthetized dog", "test": "Dog in vivo intraurethral and blood pressure assay", "conditions": "anesthetized male Mongrel dog, i.v. bolus, increasing doses", "description": "Dog In Vivo Intraurethral and Blood Pressure Assay\nThe following describes an in vivo assay for measuring the relative effect of test compounds on hypogastric nerve stimulation-induced increases in intraurethral pressure and phenylephrine-induced increases in diastolic blood pressure in anesthetized dog.\nMale Mongrel dogs (10 to 20 kg) were fasted for 12 to 18 hours and anesthetized with phenobarbital sodium (36 mg/kg, i.v.). An endotracheal tube was inserted and thereafter the lungs were mechanically ventilated with room air. The right femoral vein was isolated and cannulated with two polyethylene cannulae, one for the administration of a continuous infusion of phenobarbital sodium (5 to 10 mg/kg/hr) and the other for bolus administration of test substances. The right femoral artery was isolated and cannulated to the abdominal aorta with a fluid filled polyethylene cannula connected to an external pressure transducer for monitoring diastolic aortic pressure (DAP). The bladder was exposed via a ventral midline abdominal incision and emptied of urine through a 22 gauge needle. The bladder was cannulated through a stab incision with a water filled balloon catheter connected to an external pressure transducer for monitoring prostatic intraurethral pressure (IUP). The right hypogastric nerve (HGN) was carefully isolated and attached to a Dastre's electrode for nerve stimulation. […]"}},
  "data": [
    {"smiles": "COc1cc2[nH]c(NCc3cccc(N=C(C)N(C)C)c3)nc(=O)c2c(C)c1OC", "values": [
      {"measurement": "Ki", "setting": "Alpha1A adrenoceptor", "value": 7.41, "unit": "nM"},
      {"measurement": "Ki", "setting": "alpha1B adrenoceptor", "value": 0.891, "unit": "nM"},
      {"measurement": "Ki", "setting": "alpha1D adrenoceptor", "value": 69.2, "unit": "nM"}
    ]},
    {"smiles": "CCN(C)Cc1ccc(CN(C)c2nc(=O)c3c(OC)c(OC)c(OC)cc3[nH]2)cc1", "note": "[2-({4-[(ethyl-methyl-amino)-methyl]-benzyl}-methyl-amino)-5,6,7-trimethoxy-1H-quinazolin-4-one]", "values": [
      {"measurement": "Ki", "setting": "Alpha1A adrenoceptor", "value": 3.16, "unit": "nM"},
      {"measurement": "Ki", "setting": "alpha1B adrenoceptor", "value": 3.09, "unit": "nM"},
      {"measurement": "Ki", "setting": "alpha1D adrenoceptor", "value": 550, "unit": "nM"}
    ]},
    {"smiles": "COc1cc2[nH]c(N(C)Cc3cccc(C(C)N(C)C)c3)nc(=O)c2c(OC)c1OC", "note": "(centres unmarked) [2-{[3-(1-Dimethylamino-ethyl)-benzyl]-methyl-amino}-5,6,7-trimethoxy-1H-quinazolin-4-one]", "values": [
      {"measurement": "Ki", "setting": "Alpha1A adrenoceptor", "value": 1.55, "unit": "nM"},
      {"measurement": "Ki", "setting": "alpha1B adrenoceptor", "value": 3.72, "unit": "nM"},
      {"measurement": "Ki", "setting": "alpha1D adrenoceptor", "value": 141, "unit": "nM"}
    ]},
    {"smiles": "COc1cc2[nH]c(N(C)Cc3cccc(C4=NCCO4)c3)nc(=O)c2c(OC)c1OC", "note": "[2-{[3-(4,5-dihydro-oxazol-2-yl)-benzyl]-methyl-amino}-5,6,7-trimethoxy-1H-quinazolin-4-one]", "values": [
      {"measurement": "Ki", "setting": "Alpha1A adrenoceptor", "value": 813, "unit": "nM"},
      {"measurement": "Ki", "setting": "alpha1B adrenoceptor", "value": 14.8, "unit": "nM"},
      {"measurement": "Ki", "setting": "alpha1D adrenoceptor", "value": 2630, "unit": "nM"}
    ]},
    {"smiles": "COc1cc2[nH]c(N(C)Cc3ccc(OCC(O)CO)cc3)nc(=O)c2c(C)c1OC", "note": "(centres unmarked) [2-{[4-(2,3-dihydroxy-propoxy)-benzyl]-methyl-amino}-6,7-dimethoxy-5-methyl-1H-quinazolin-4-one]", "values": [
      {"measurement": "Ki", "setting": "Alpha1A adrenoceptor", "value": 7.08, "unit": "nM"},
      {"measurement": "Ki", "setting": "alpha1B adrenoceptor", "value": 6.92, "unit": "nM"},
      {"measurement": "Ki", "setting": "alpha1D adrenoceptor", "value": 794, "unit": "nM"}
    ]},
    {"smiles": "COc1cc2[nH]c(N(C)Cc3cccc(CN4CCC(OC)C4)c3)nc(=O)c2c(OC)c1OC", "note": "(centres unmarked) [5,6,7-trimethoxy-2-{[3-(3-methoxy-pyrrolidin-1-ylmethyl)-benzyl]-methyl-amino}-1H-quinazolin-4-one]", "values": [
      {"measurement": "Ki", "setting": "Alpha1A adrenoceptor", "value": 5.37, "unit": "nM"},
      {"measurement": "Ki", "setting": "alpha1B adrenoceptor", "value": 7.41, "unit": "nM"},
      {"measurement": "Ki", "setting": "alpha1D adrenoceptor", "value": 5370, "unit": "nM"}
    ]},
    {"smiles": "COc1cc2[nH]c(N(C)Cc3ccc4c(c3)CN(C)C4)nc(=O)c2c(C)c1OC", "note": "[6,7-Dimethoxy-5-methyl-2-[methyl-(2-methyl-2,3-dihydro-1H-isoindol-5-ylmethyl)-amino]-1H-quinazolin-4-one]", "values": [
      {"measurement": "Ki", "setting": "Alpha1A adrenoceptor", "value": 3.24, "unit": "nM"},
      {"measurement": "Ki", "setting": "alpha1B adrenoceptor", "value": 14.8, "unit": "nM"},
      {"measurement": "Ki", "setting": "alpha1D adrenoceptor", "value": 2630, "unit": "nM"}
    ]},
    {"smiles": "COc1cc2nc(N3CCN(C(=O)c4ccco4)CC3)nc(N)c2cc1OC", "note": "[prazosin]", "values": [
      {"measurement": "inhibition of hypogastric nerve (HGN) stimulation-induced increases in intraurethral pressure (IUP)", "setting": "anesthetized dog", "value": "inhibited increases in IUP and DAP in similar fashion"},
      {"measurement": "inhibition of phenylephrine-induced increases in diastolic aortic pressure (DAP)", "setting": "anesthetized dog", "value": "inhibited increases in IUP and DAP in similar fashion"}
    ]}
  ]
}
